The values below are quoted from earlier work in patent publication EP0513922B1, “Coating for foods and agricultural products to prevent the growth of moulds” (GIST-BROCADES N.V., priority 1991, dated 1992).

For series [1] the following is noted: in aqueous systems, depending of the presence of other substances.
In a further series the test system is fungus growth. The conditions noted are these: to be effective against fungus growth.

In the case of `C[C@@H]1C/C=C/C=C/C=C/C=C/[C@H](O[C@@H]2O[C@H](C)[C@@H](O)[C@H](N)[C@@H]2O)C[C@@H]2O[C@](O)(C[C@@H](O)C[C@H]3O[C@@H]3/C=C/C(=O)O1)C[C@H](O)[C@H]2C(=O)O` [natamycin], the solubility of natamycin in series [1] was 30 - 50 ppm. Also, the minimal inhibitory concentration result with fungus growth is listed as “less than 10 ppm”.
